From paper PMC10976393 (2024) come the findings set out here.

Assay [1] concerns Triplet G (DNA, aptamer) CCTGGGGGGGAGTATTGCGGGAGGGAAGG
Kind of assay: ThT fluorescence light-up. The following applies: 100 mM KCl; 50 mM Tris pH 7.5; 3- to 4-fold increase over non-G4 controls.

Assay [2] deals with Quadruplet G (DNA, aptamer) CCTGGGGGGGGGAGTATTGCGGGGAGGGGAAGG
Kind of assay: HPLC-ESI-MS. The following applies: 1 mM KCl, 100 mM TEAAc (annealed in 50 mM KCl).

The subject of assay [3] is Triplet G (DNA, aptamer) CCTGGGGGGGAGTATTGCGGGAGGGAAGG
Kind of assay: HPLC-ESI-MS. The following applies: 1 mM KCl, 100 mM TEAAc (annealed in 50 mM KCl).

Assay [4] deals with ATP Aptamer (DNA, aptamer) CCTGGGGGAGTATTGCGGAGGAAGG
Briefly: ThT fluorescence light-up. The following applies: 100 mM KCl; 50 mM Tris pH 7.5; 3- to 4-fold increase over non-G4 controls.

For assay [5], the system named is Quadruplet G (DNA, aptamer) CCTGGGGGGGGGAGTATTGCGGGGAGGGGAAGG
Kind of assay: ThT fluorescence light-up. The following applies: 100 mM KCl; 50 mM Tris pH 7.5; 3- to 4-fold increase over non-G4 controls.

The subject of assay [6] is ATP Aptamer (DNA, aptamer) CCTGGGGGAGTATTGCGGAGGAAGG
Kind of assay: HPLC-ESI-MS. The following applies: 1 mM KCl, 100 mM TEAAc (annealed in 50 mM KCl).

For assay [7], the system named is ATP Aptamer-FAM (DNA, aptamer) TTCCTGGGGGAGTATTGCGGAGGAAGG
Briefly: FAM fluorescence increase, single-site fit. The following applies: 100 mM KCl; 50 mM Tris pH 7.5; slow annealing with ATP 0-10 μM; 0.50 μM aptamer.

Assay [8] concerns Triplet G (DNA, aptamer) CCTGGGGGGGAGTATTGCGGGAGGGAAGG
Briefly: label-free ThT fluorescence increase, single-site fit. The following applies: 100 mM KCl; 50 mM Tris pH 7.5; ThT 0.5 μM present; slow annealing with ATP; apparent.

Assay [9] deals with Scrambled Aptamer (DNA, single strand) GTGCGCGAGTGTGAGCGAGAGTGAG
Briefly: label-free ThT fluorescence. The following applies: 100 mM KCl; 50 mM Tris pH 7.5; ThT present; slow annealing with ATP.

Assay [10] has as its system FAM-ATP Aptamer (DNA, aptamer) TTCCTGGGGGAGTATTGCGGAGGAAGG
Kind of assay: FAM fluorescence increase, single-site fit. The following applies: 100 mM KCl; 50 mM Tris pH 7.5; slow annealing with ATP 0-10 μM; 0.50 μM aptamer.

The test system of assay [11] is FAM-Quadruplet G (DNA, aptamer) TTCCTGGGGGGGGGAGTATTGCGGGGAGGGGAAGG
Briefly: FAM fluorescence increase, single-site fit. The following applies: 100 mM KCl; 50 mM Tris pH 7.5; slow annealing with ATP 0-10 μM; 0.50 μM aptamer.

Assay [12] has as its system GAT (DNA, single strand) GATAGCGTCACTCGATCT
Briefly: label-free ThT fluorescence. The following applies: 100 mM KCl; 50 mM Tris pH 7.5; ThT present; slow annealing with ATP.

The subject of assay [13] is FAM-Triplet G (DNA, aptamer) TTCCTGGGGGGGAGTATTGCGGGAGGGAAGG
Briefly: FAM fluorescence increase, single-site fit. The following applies: 100 mM KCl; 50 mM Tris pH 7.5; slow annealing with ATP 0-10 μM; 0.50 μM aptamer.

The subject of assay [14] is Quadruplet G (DNA, aptamer) CCTGGGGGGGGGAGTATTGCGGGGAGGGGAAGG
Kind of assay: label-free ThT fluorescence increase, single-site fit. The following applies: 100 mM KCl; 50 mM Tris pH 7.5; ThT 0.5 μM present; slow annealing with ATP; apparent.

The test system of assay [15] is ATP Aptamer (DNA, aptamer) CCTGGGGGAGTATTGCGGAGGAAGG
Described as above. The following applies: 100 mM KCl; 50 mM Tris pH 7.5; ThT 0.5 μM present; slow annealing with ATP; apparent.

Where [16] appears, read: G4:ATP:ThT 1:5:5 mixed, ternary complex with ATP.
Where [17] appears, read: 1 mM Tris, G4:ATP 1:5 mixed, also with ThT.

SMILES strings stand for the structures.

For `Cc1ccc2c(c1)sc(-c1ccc(N(C)C)cc1)[n+]2C`, the binding entry in assay [1], in assay [2] (setting [16]), in [3] (setting [16]), in assay [4], in [5] and in assay [6] (setting [16]) was “yes” throughout.

On to `Nc1ncnc2c1ncn2[C@@H]1O[C@H](COP(=O)(O)OP(=O)(O)OP(=O)(O)O)[C@@H](O)[C@H]1O`, for which the Kd in assay [7] came to 0.62 µM; in assay [8] it was 0.071 µM; in assay [10], 0.15 µM; in assay [11], 0.042 µM; in [13], 0.040 µM; in [14], 0.17 µM. The Kd in assay [15] turned out to be 0.83 µM. For the same molecule, the binding result is on record as “no” in assay [9]; “no” in [12]; “yes” in [2] (setting [17]); “yes” in [3] (setting [17]); “yes” in [6] (setting [17]).
